Experiments:
[1] = Sweetness potency at 2% sucrose solution
[2] = Sweetness potency at 1 mg/mL sucrose solution; weakly bitter
[3] = Sweetness potency at 4% sucrose solution

| Structure (SMILES) | Sweetness potency [1] | other results |
| --- | --- | --- |
| C[C@H](/N=C(/NCC(=O)O)Nc1ccc(C#N)cc1)c1ccccc1 | 28000 | – |
| N/C(=N\CC(=O)O)NCC1CCCCC1 | – | Sweetness potency [2]: weakly bitter |
| C[C@H](/N=C(\N)NCC(=O)O)c1ccccc1 | – | Sweetness potency [2]: weakly bitter |
| N#Cc1ccc(N/C(=N\CC(=O)O)NC(c2ccccc2)c2ccccc2)cc1 | 200000 | – |
| N/C(=N\C(c1ccccc1)c1ccccc1)NCC(=O)O | – | Sweetness potency [3]: 400 |

Second part, led by results:

| Sweetness potency [1] | Structure (SMILES) | other results |
| --- | --- | --- |
| 200 | N/C(=N\C1CCCCCCC1)NCC(=O)O | – |
| 35000 | N#Cc1ccc(N/C(=N\CC(=O)O)NCC2CCCCC2)cc1 | – |
| 170000 | N#Cc1ccc(N/C(=N/CC(=O)O)NC2CCCCCCC2)cc1 | – |

— ChEMBL document CHEMBL1126320, “N,N'-disubstituted guanidine high-potency sweeteners” (J Med Chem, 1992)
